pIC50: −log10 of the molar value. Like-named read-outs stand apart in the source and are kept apart here.
Tests used:
[1] = tested on: chloroquine sensitive (CQS) strain (NF54) of P. falciparum; assay: In vitro antiplasmodial activity, Assay A (parasite lactate dehydrogenase assay); assay type: cell-based
Protocol: Test samples were screened for in vitro antiplasmodial activity against a chloroquine sensitive (CQS) strain (NF54) of the malaria parasite P. falciparum. Continuous in vitro cultures of asexual erythrocyte stages of P. falciparum were maintained using a modified version of the method of Trager and Jensen (1976).1 Quantitative assessment of antiplasmodial activity in vitro was determined via the parasite lactate dehydrogenase assay using a modified method described by Makler (1993). The test samples were tested in triplicate on two separate occasions. Further dilutions were prepared in complete medium on the day of the experiment. Samples were tested as a suspension if not completely dissolved. Chloroquine and artesunate were used as the reference drugs. A full dose-response were performed starting at a concentration of 3000 nM, which is then serially diluted 2-fold in complete medium to give 10 concentrations; with the lowest concentration being approximately 6 nM. The same dilution techniques were used for all samples. References were tested at a starting concentration of 1000 ng/mL. The highest concentration of solvent to which the parasites were exposed has no measurable effect on the parasite viability (data not shown).

[2] = tested on: CQC sensitive strain (NF54) of P. falciparum; assay: In vitro antiplasmodial activity, Assay B (as described by Vennerstrom et al. 2004); assay type: cell-based; settings: Plasmodium falciparum; NF54, Vennerstrom et al. method
Protocol: Compounds were screened against CQC sensitive strain (NF54) of P. falciparum in vitro as described by Vennerstrom et al. (2004). A full dose-response were performed starting at a concentration of 3000 nM, which is then serially diluted 2-fold in complete medium to give 10 concentrations; with the lowest concentration being approximately 6 nM. The same dilution techniques were used for all samples. References were tested at a starting concentration of 1000 ng/mL. The highest concentration of solvent to which the parasites were exposed has no measurable effect on the parasite viability (data not shown).

SMILES | pIC50 ([1]; Plasmodium falciparum) | pIC50 [2] | also measured
Cn1cc(-c2cc3ncnc(-c4cccc(S(=O)(=O)C5CC5)c4)c3o2)ccc1=O [Compound D22, 5-(4-(3-(cyclopropylsulfonyl)phenyl)furo[3,2-d]pyrimidin-6-yl)-1-methylpyridin-2(1H)-one] | < 7.30 |  | 
CC(C)(C)OC(=O)c1ccc(-c2cc3ncnc(-c4ccnc(C(C)(C)O)c4)c3o2)cc1 [Compound D162, tert-butyl 4-(4-(2-(2-hydroxypropan-2-yl)pyridin-4-yl)furo[3,2-d]pyrimidin-6-yl)benzoate] | > 7.82 |  | 
COC(=O)c1cccc(-c2cc3ncnc(-c4ccnc(C(C)(C)O)c4)c3o2)c1 [Compound D163, methyl 3-(4-(2-(2-hydroxypropan-2-yl)pyridin-4-yl)furo[3,2-d]pyrimidin-6-yl)benzoate] | > 7.82 |  | 
CC(C)(O)c1cc(-c2ncnc3cc(-c4cccc(C(=O)O)c4)oc23)ccn1 [Compound D164, 3-(4-(2-(2-hydroxypropan-2-yl)pyridin-4-yl)furo[3,2-d]pyrimidin-6-yl)benzoic acid] | > 7.82 |  | 
CC(C)(O)c1cc(F)cc(-c2ncnc3cc(-c4ccc(C(=O)N5CCOCC5)cc4)oc23)c1 [Compound D165, (4-(4-(3-fluoro-5-(2-hydroxypropan-2-yl)phenyl)furo[3,2-d]pyrimidin-6-yl)phenyl)(morpholino) methanone] | > 7.82 |  | 
CC1COCC(C)N1C(=O)c1ccc(-c2cc3ncnc(-c4ccnc(C(C)(C)O)c4)c3o2)cc1 (stereo not drawn) [Compound D171, (3,5-dimethylmorpholino)(4-(4-(2-(2-hydroxypropan-2-yl)pyridin-4-yl)furo[3,2-d]pyrimidin-6-yl)phenyl)methanone] | < 7.30 |  | 
CC(C)(O)c1cc(F)cc(-c2ncnc3cc(-c4ccc(C(=O)N5C[C@H]6C[C@@H]5CO6)cc4)oc23)c1 [Compound D173, ((1R,4R)-2-oxa-5-azabicyclo[2.2.1]heptan-5-yl)(4-(4-(3-fluoro-5-(2-hydroxypropan-2-yl)phenyl)furo[3,2-d]pyrimidin-6-yl)phenyl)methanone] | > 7.82 |  | 
CC(C)(O)c1cc(F)cc(-c2ncnc3cc(-c4ccc(C(=O)N5C[C@@H]6C[C@H]5CO6)cc4)oc23)c1 [Compound D175, ((1S,4S)-2-oxa-5-azabicyclo[2.2.1]heptan-5-yl)(4-(4-(3-fluoro-5-(2-hydroxypropan-2-yl)phenyl)furo[3,2-d]pyrimidin-6-yl)phenyl)methanone] | > 7.82 |  | 
CC(=O)c1ccc(-c2cc3ncnc(-c4cccc(S(=O)(=O)C5CC5)c4)c3o2)cn1 [Compound P2, 1-(5-(4-(3-(cyclopropylsulfonyl)phenyl)furo[3,2-d]pyrimidin-6-yl)pyridin-2-yl)ethan-1-one] |  | < 7.30 | 
CS(=O)(=O)c1ccc(-c2cc3ncnc(-c4cccc(C(=O)N5C[C@H]6C[C@@H]5CO6)c4)c3o2)cc1 [Compound P3, ((1R,4R)-2-oxa-5-azabicyclo[2.2.1]heptan-5-yl)(3-(6-(4-(methylsulfonyl)phenyl)furo [3,2-d]pyrimidin-4-yl)phenyl)methanone] |  | < 7.30 | 
CS(=O)(=O)c1ccc(-c2cc3ncnc(-c4cccc(C(=O)N5C[C@H]6C[C@@H]5CO6)c4F)c3o2)cc1 [Compound P4, ((1R,4R)-2-oxa-5-azabicyclo[2.2.1]heptan-5-yl)(2-fluoro-3-(6-(4-(methylsulfonyl)phenyl)furo [3,2-d]pyrimidin-4-yl)phenyl)methanone] |  | 7.30 to 7.82 | 
CS(=O)(=O)c1ccc(-c2cc3ncnc(-c4cccc(C(=O)N5C[C@@H]6C[C@H]5CO6)c4F)c3o2)cc1 [Compound P5, ((1S,4S)-2-oxa-5-azabicyclo[2.2.1]heptan-5-yl)(2-fluoro-3-(6-(4-(methylsulfonyl)phenyl)furo [3,2-d]pyrimidin-4-yl)phenyl)methanone] |  | 7.30 to 7.82 | 
CC(C)(O)Cc1cc(-c2ncnc3cc(-c4ccc(S(C)(=O)=O)cc4)oc23)ccn1 [Compound P6, 2-methyl-1-(4-(6-(4-(methylsulfonyl)phenyl)furo [3,2-d]pyrimidin-4-yl)pyridin-2-yl)propan-2-ol] |  | < 7.30 | 
CC(C)(O)c1cc(-c2ncnc3cc(-c4ccc(S(C)(=O)=O)cc4)oc23)ccn1 [Compound P7, 2-(4-(6-(4-(methylsulfonyl)phenyl)furo [3,2-d]pyrimidin-4-yl)pyridin-2-yl)propan-2-ol] |  | 7.30 to 7.82 | 
CN(C)C(=O)c1ccc(-c2cc3ncnc(-c4ccnc(C(C)(C)O)c4)c3o2)cc1 [Compound P8, 4-(4-(2-(2-hydroxypropan-2-yl)pyridin-4-yl)furo[3,2-d]pyrimidin-6-yl)-N,N-dimethylbenzamide] |  | 7.30 to 7.82 | 
CN(C)C(=O)c1ccc(-c2cc3ncnc(-c4cccc(C(C)(C)O)c4)c3o2)cc1 [Compound P9, 4-(4-(3-(2-hydroxypropan-2-yl)phenyl)furo[3,2-d]pyrimidin-6-yl)-N,N-dimethylbenzamide] |  | 7.30 to 7.82 | 
CC(C)(O)c1cc(-c2ncnc3cc(-c4ccc(C(=O)O)cc4)oc23)ccn1 [Compound P10, 4-(4-(2-(2-hydroxypropan-2-yl)pyridin-4-yl)furo[3,2-d]pyrimidin-6-yl)benzoic acid] |  | 7.30 to 7.82 | 
CC(C)(O)c1cc(-c2ncnc3cc(-c4ccc(C(=O)N5CCOCC5)cc4)oc23)ccn1 [Compound P11, (4-(4-(2-(2-hydroxypropan-2-yl)pyridin-4-yl)furo[3,2-d]pyrimidin-6-yl)phenyl)(morpholino) methanone] |  | > 7.82 | 
CC(C)(O)c1cc(-c2ncnc3cc(-c4ccc(C(=O)N5CC(F)(F)C5)cc4)oc23)ccn1 [Compound P12, (3,3-difluoroazetidin-1-yl)(4-(4-(2-(2-hydroxypropan-2-yl)pyridin-4-yl)furo[3,2-d]pyrimidin-6-yl)phenyl)methanone] |  | 7.30 to 7.82 | 
CC(C)(O)c1cccc(-c2ncnc3cc(-c4ccc(C(=O)N5CCOCC5)cc4)oc23)c1 [Compound P13, (4-(4-(3-(2-hydroxypropan-2-yl)phenyl)furo[3,2-d]pyrimidin-6-yl)phenyl)(morpholino) methanone] | < 7.30 |  | 
CC(C)(O)c1cc(-c2ncnc3cc(-c4ccc(C(=O)N5CCOCC5)cc4)oc23)cc(F)n1 [Compound P14, (4-(4-(2-fluoro-6-(2-hydroxypropan-2-yl)pyridin-4-yl)furo[3,2-d]pyrimidin-6-yl)phenyl)(morpholino) methanone] |  | 7.30 to 7.82 | 
C[C@@H]1CN(C(=O)c2ccc(-c3cc4ncnc(-c5ccnc(C(C)(C)O)c5)c4o3)cc2)C[C@@H](C)O1 [Compound P15, ((2R,6R)-2,6-dimethylmorpholino)(4-(4-(2-(2-hydroxypropan-2-yl)pyridin-4-yl)furo[3,2-d]pyrimidin-6-yl)phenyl)methanone] |  | > 7.82 | 
C[C@H]1CN(C(=O)c2ccc(-c3cc4ncnc(-c5ccnc(C(C)(C)O)c5)c4o3)cc2)C[C@H](C)O1 [Compound P16, ((2S,6S)-2,6-dimethylmorpholino)(4-(4-(2-(2-hydroxypropan-2-yl)pyridin-4-yl)furo[3,2-d]pyrimidin-6-yl)phenyl)methanone] |  | > 7.82 | 
CN1CCN(C(=O)c2ccc(-c3cc4ncnc(-c5ccnc(C(C)(C)O)c5)c4o3)cc2)CC1 [Compound P22, (4-(4-(2-(2-hydroxypropan-2-yl)pyridin-4-yl)furo[3,2-d]pyrimidin-6-yl)phenyl)(4-methylpiperazin-1-yl)methanone] |  | > 7.82 | 
CC(C)(O)c1cc(-c2ncnc3cc(-c4ccc(S(C)(=N)=O)cc4)oc23)ccn1 (stereo not drawn) [Compound P25, (4-(4-(2-(2-hydroxypropan-2-yl)pyridin-4-yl)furo[3,2-d]pyrimidin-6-yl)phenyl)(imino)(methyl)-λ6-sulfanone] |  | 7.30 to 7.82 | 
CC(C)(O)c1cc(-c2ncnc3cc(-c4ccc([S@@](C)(=N)=O)cc4)oc23)ccn1 [Compound P26, (S)-(4-(4-(2-(2-hydroxypropan-2-yl)pyridin-4-yl)furo[3,2-d]pyrimidin-6-yl)phenyl)(imino)(methyl)-λ6-sulfanone] |  | 7.30 to 7.82 | 
CC(C)(O)c1cc(-c2ncnc3cc(-c4ccc([S@](C)(=N)=O)cc4)oc23)ccn1 [Compound P27, (R)-(4-(4-(2-(2-hydroxypropan-2-yl)pyridin-4-yl)furo[3,2-d]pyrimidin-6-yl)phenyl)(imino)(methyl)-λ6-sulfanone] |  | 7.30 to 7.82 | 
CC(C)(O)c1cccc(-c2ncnc3cc(-c4ccc(S(C)(=N)=O)cc4)oc23)c1F (stereo not drawn) [Compound P28, (4-(4-(2-fluoro-3-(2-hydroxypropan-2-yl)phenyl)furo[3,2-d]pyrimidin-6-yl)phenyl)(imino)(methyl)-λ6-sulfanone] |  |  | pIC50 [1]: > 7.82
CC(C)(O)c1cccc(-c2ncnc3cc(-c4ccc([S@@](C)(=N)=O)cc4)oc23)c1F [Compound P29, (S)-(4-(4-(2-fluoro-3-(2-hydroxypropan-2-yl)phenyl)furo[3,2-d]pyrimidin-6-yl)phenyl)(imino)(methyl)-λ6-sulfanone] |  | > 7.82 | 
CC(C)(O)c1cccc(-c2ncnc3cc(-c4ccc([S@](C)(=N)=O)cc4)oc23)c1F [Compound P30, (R)-(4-(4-(2-fluoro-3-(2-hydroxypropan-2-yl)phenyl)furo[3,2-d]pyrimidin-6-yl)phenyl)(imino)(methyl)-λ6-sulfanone] |  | > 7.82 | 

Source: patent publication US20260042772A1, “FURO PYRIMIDINE DERIVATES” (Merck Patent GmbH, priority 2022, published 2026)
